{"source": "paper PMC11984388", "about": "“A brain-accessible peptide modulates stroke inflammatory response and neurotoxicity by targeting BDNF-receptor TrkB-T1 specific interactome” (Theranostics, 2025)", "tested_on": "Bio-sTT1Ct-interacting proteins of primary cortical cultures", "experiment": "Pull-down with biotinylated peptide and label-free proteomics", "format": "binding, Rattus norvegicus", "details": "pull-down from neuronal-enriched cortical cultures; did not pass the selection criteria", "protocol": "Cultures incubated with biotinylated peptides and treated as indicated were lysed at 4°C in NP-40 lysis buffer. Equal protein amounts were combined with streptavidin-agarose beads and incubated for 1.5 h for specifically-bounded protein isolation. Peptides and their interacting proteins were released by incubation at 50°C for 40 min in RIPA modified buffer. Peptide-interacting proteins were collected and subjected to LC-ESI-MS/MS (HR, medium gradient) protein identification using a mass spectrometer (Orbitrap Exploris 240) and Proteome Discoverer software for analysis (CNB Proteomics Facility, CSIC). Further procedure details are provided as Supplementary material.\nCultures were incubated with Bio-TMyc or Bio-sTT1Ct (30 min) before treatment with BDNF (100 ng/ml) or NMDA (100 µM) for 30 additional minutes, or left untreated (Figure 2A). […] Then, proteins interacting with Bio-TMyc and Bio-sTT1Ct were identified by a label free proteomic assay, obtaining a total of 4697 proteins for the three different biological conditions and four independent experiments analyzed. […] Therefore, we evaluated by a Principal Component Analysis (PCA) whether the interactome profiles obtained were different for both peptides (Figure 2B). […]\n[…]", "note": "Residues, ends and D or L forms follow the SMILES beside them. *: point of attachment. Biotin = O=C1N[C@H]2[C@H](CS[C@H]2CCCCC(=O)*)N1"}
{"smiles": "CC[C@H](C)[C@H](NC(=O)[C@H](CCCCN)NC(=O)[C@H](Cc1c[nH]cn1)NC(=O)[C@H](Cc1ccccc1)NC(=O)[C@H](CC(C)C)NC(=O)[C@@H](NC(=O)[C@H](Cc1ccccc1)NC(=O)[C@H](CCCNC(=N)N)NC(=O)[C@H](CCCNC(=N)N)NC(=O)[C@H](CCCNC(=N)N)NC(=O)[C@H](CCC(N)=O)NC(=O)[C@H](CCCNC(=N)N)NC(=O)[C@H](CCCNC(=N)N)NC(=O)[C@H](CCCCN)NC(=O)[C@H](CCCCN)NC(=O)[C@H](CCCNC(=N)N)NC(=O)CNC(=O)[C@H](Cc1ccc(O)cc1)NC(=O)CCCC[C@@H]1SC[C@@H]2NC(=O)N[C@@H]21)C(C)C)C(=O)N1CCC[C@H]1C(=O)N[C@@H](CC(C)C)C(=O)N[C@@H](CC(=O)O)C(=O)NCC(N)=O", "note": "[Bio-sTT1Ct] (Biotin-YGRKKRRQRRRFVLFHKIPLDG-NH2)", "values": [{"measurement": "Binding of RhoGDI (Arhgdia) to the peptide", "result": "very low binding"}]}
